This note sets out measurements from patent US20240336889A1, “NOMADIC BACTERIA AND USES THEREOF” (The State of Israel, Ministry of Agriculture & Rural …, priority 2021, published 2024).

The test system of data set [1] is C. albicans. The data set can be described thus: Yeast-hyphae switching assay. The conditions noted are these: liquid RPMI media. In kind it is cell-based. As for the experimental part: Yeast-hyphae switching assay: Yeast-hyphae (Y-H) switching assays were conducted in liquid RPMI-1640 medium as previously described. Briefly, overnights cultures of C. albicans (grown in PDB) were diluted to a 1:100 in RPMI-1640 and treated with or without UP/CSP ([…]) or ketones (0.005%-0.1%). The cultures were then incubated at 37° C. with shaking (150 rpm). Following incubation, 5 μL of the cultures were transferred to the microscopic slide and imaged under Nikon fluorescent microscope (Nikon Eclipse Ti2, Japan).

Data set [2] deals with C. albicans. The data set can be described thus: C. albicans biofilm inhibition assay (crystal violet). The class given is cell-based. The conditions noted are these: for effect of pure ketone on C. albicans biofilms: dose not stated. As for the experimental part: (§1) Biofilm inhibition assay: Biofilm inhibition assays were conducted in 96-well polystyrene microtiter plates (Tarsons Products Pvt. Ltd. India) as previously described. Briefly, bacterial or yeast cells were cultured overnight in LB or PDB and re-inoculated in fresh LB or PDB (1:100 dilution) (with 0.05% glucose) with and without supplementation of postbiotics (5% or 10% v/v) at 37° C. After 24 h of incubation, biofilms were stained with crystal violet (0.1%) for 20 min, washed repeatedly, and the residual biofilm cells (attached to the polystyrene surfaces) were dissolved in 95% ethanol. The planktonic growth was measured at 600 nm, while the biofilms were measured at 575 nm using a Biowave CO8000 cell density meter. For microscopic imaging of biofilms attached to the polystyrene surfaces, the wells were stained with SYTO® 9 dye, and imaged under Nikon fluorescent microscope (Nikon Eclipse Ti2, Japan) using a GFP emission filter.

For data set [3], the system named is C. albicans. The data set can be described thus: C. elegans infected with C. albicans, treated with 2-undecanone. As to conditions: 2-undecanone 0.01%, 7 days; infected untreated 20% survival. In kind it is in vivo. As for the experimental part: C. elegans co-infection assays: Wild-type C. elegans were maintained on nematode growth medium (NGM) with E. coli OP50 as the feed, and synchronization was performed as described previously^35. Briefly, C. elegans were collected by aspiration and bleached with 2% sodium hypochlorite and 0.5 N sodium hydroxide to get the eggs. Eggs were transferred to 48-well microliter plates and were incubated for 24 h at 22° C. for hatching. The hatched juveniles were transferred to new E. coli OP50 plates and incubated for 5-7 days to obtain adult nematode. Adults were subsequently used for toxicity, and bacterial or C. albicans colonization assays. For C. albicans infection of C. elegans, the adult nematodes, previously fed on E. coli OP50, were transferred to a C. albicans lawn on NGM agar plate for 4 h. After 4 h, the nematodes were collected in M9 buffer, pipetted into a 96-well, and survival monitored for 7 days. […] The live and dead nematodes were counted under bright-field, and DAPi filter and the nematode survival rates were estimated and plotted. The images of C. elegans were acquired using a Nikon fluorescent microscope (Nikon Eclipse Ti2, Japan).
The present inventors further tested whether 2-undecanone could suppress C. albicans pathogenicity in a C. elegans model by infecting C. elegans with C. albicans.

Data set [4] relates to C. albicans. The data set can be described thus: C. albicans growth profile. In kind it is cell-based. As for the experimental part:
as §1, with “Briefly, bacterial or yeast cells were cultured overnight in LB or PDB and re-inoculated in fresh LB or PDB (1:100 dilution) (with 0.05% glucose) with and without supplementation of postbiotics (5% or 10% v/v) at 37° C.” left out

The subject of data set [5] is C. elegans. The experiment in a line: C. elegans toxicity assay. As to conditions: 2-undecanone 0.1%, 7 days. In kind it is in vivo. As for the experimental part:
C. elegans toxicity assay: C. elegans wild-type strains were maintained on nematode growth medium (NGM) with E. coli OP50 as the feed. […] The control and treatment groups (each consisting of approximately 30 nematodes per well) were suspended in liquid M9 buffer and monitored for 7 days. The live or dead nematodes were counted using the Nikon fluorescent microscope (Nikon Eclipse Ti2, Japan) using a DIC and DAPi (blue LED light) filters and the survival percentage was calculated.

For data set [6], the system named is unstressed L. plantarum 3297 cells from conic colonies. The experiment in a line: Cold-shock colony filtrate assay: consolidated circular bundle formation in unstressed conic colony cells. In kind it is cell-based. The conditions noted are these: cells pre-incubated with lithium chloride (5M) before CSCF. As for the experimental part:
An assay was developed to see if the cold-stressed conic colony (−17° C. for 1 h) extracts could potentiate consolidated bundling in unstressed conic colony cells. Briefly, 1 mL of suspension from harvested cold-stressed (treated) and unstressed (control) conic colonies (approximately 5-6 colonies) were resuspended in PBS, vortexed, and sonicated. The extracts were filtered using a 0.2 μm membrane filter to remove the cells. The filtrate was named cold-shock colony filtrates (CSCF). Simultaneously, 1 mL cells from the unstressed colonies were vortexed, sonicated, and pelleted. To these pelleted unstressed cells, 1 mL of CSCF was added, aspirated, and incubated at 37° C. for 3 h. At the same time, colony filtrates (CF) from the unstressed colony and heat-treated (60° C. for 30 min) CSCF were prepared and tested. Following incubation, the aggregation pattern was scrutinized under Nikon fluorescent microscope (Nikon Eclipse Ti2, Japan). As a negative control, one vial of unstressed cells was incubated with 5M lithium chloride ([…]) for 30 min before adding 1 mL of CSCF. […] abolishes the S-layer protein and stalls the ability of the cells to aggregate to form bundles.

SMILES strings stand for the structures.

As to `CCCCCC(C)=O` [2-heptanone], in data set [1], the “effect of pure ketone on C. albicans hyphae (Y-H transitions)” value (shortened to “effect of pure ketone … (Y-H transitions)”) is reported as “did not show any notable effect”. The “effect of pure ketone on C. albicans biofilms” value in data set [2] was “did not show any notable effect”.
As for `CCCCCCCC(C)=O` [2-nonanone], the “effect of pure ketone … (Y-H transitions)” value in data set [1] is given as “did not show any notable effect”. Also, the “effect of pure ketone on C. albicans biofilms” value in data set [2] is listed as “did not show any notable effect”.
`CCCCCCCCCC(C)=O` [2-undecanone]: the “effect of pure ketone … (Y-H transitions)” value in data set [1] was “effectively controlled Y-H transitions”. Further, the “survivability of C. albicans infected C. elegans” value in data set [3] came out at 50%. Also, in data set [2] (0.005%, PDB, polystyrene), the “C. albicans biofilm formation” value is given as “successful in preventing the biofilm formation”. In addition, the “C. albicans planktonic growth” value in data set [4] (0.005%) is “without compromising the planktonic growth”. Moreover, the “C. albicans growth profiles” value in data set [4] (higher dosage (0.05 or 0.01%), RPMI media) is “substantial decline in the growth profiles”. In addition, in data set [5], the “mortality of C. elegans” value is reported as “did not induce any mortality”.
`[Cl-].[Li+]` [lithium chloride]: the “circular bundle formation induced by CSCF” value in data set [6] is reported as “prevented”.
